Here are results for one compound from paper PMC8587101, “Design and Synthesis of Novel Betulin Derivatives Containing Thio-/Semicarbazone Moieties as Apoptotic Inducers through Mitochindria-Related Pathways” (Molecules, 2021).

The test system of experiment [1] is human colorectal cells (HCT-116). Nature of the experiment: MTT cytotoxicity assay, HCT-116. The following applies: HCT-116, MTT, 48 h, means ± SD of three experiments, read-out: IC50 (μM) HCT-116. The experiment is classed as cell-based. A general note: Formazan colour is commonly taken as a measure of viable cells.
The subject of experiment [2] is MCF-7 cells. Briefly: Western blot of apoptosis-related proteins. The following applies: MCF-7, 3, 6 and 12 µM, 24 h, GAPDH internal control. It is filed as cell-based, human. How it is done: To further explore the molecular mechanism of compound-8f-induced apoptosis in MCF-7 cells, the expression levels of the related apoptotic proteins Bcl-2, Bax, P53, caspase-3, caspase-9, cleaved caspase-3, cleaved caspase-9 and cytochrome c under treatment of compound 8f were carried out. MCF-7 cells were co-cultured with compound 8f at the gradient concentrations of 3, 6 and 12 µM for 24 h, and the related apoptotic proteins expression levels were tested by means of Western blotting. The GAPDH expression level was used as an internal control group. […] Meanwhile, the cleavage forms of the caspase proteins were evaluated (Figure 10). Compound 8f could also activated the expression levels of both cleaved caspase-3 and cleaved caspase-9 in a dose-dependent manner.
After treatment with compound 8f (0, 3, 6 and 12 µM), MCF-7 cells were harvested and lysed in RIPA buffer and boiled for 10 min at 100 °C. Equal amount of protein ([…]) were separated on a 10% SDS-PAGE gel and transferred to nitrocellulose membranes. The membranes were blocked with 5% BSA and probed with a 1:1000 dilution of primary antibody against Cl-caspase-3 (Cell Singaling Technology, Inc., Danvers, MA, USA), Cl-caspase-9 (Cell Singaling Technology Inc), P53 (Cell Singaling Technology, Inc; Danvers, MA, USA), Bcl-2 (Santa Cruz Biotechnology, Inc; Santa Cruz, CA, USA), Cytochrome c (Proteintech Group, Inc; Rosemont, IL, USA) and Bax (Proteintech Group, Inc; Rosemont, IL, USA). Then, the membranes were incubated with a 1:5000 dilution of horseradish peroxidase-conjugated secondary antibody for 2 h. Positive bands were visualized on a X-ray film using an enhanced chemiluminescence system (Kodak).

In experiment [3] the test system is human breast carcinoma cells (MCF-7). Nature of the experiment: MTT cytotoxicity assay, MCF-7. It is filed as cell-based. The following applies: for IC50: MTT, 48 h, means ± SD of three experiments, read-out: IC50 (μM) MCF-7.
In experiment [4] the test system is normal human gastric epithelial cells (GES-1). Briefly: MTT cytotoxicity assay, GES-1 normal cells. The following applies: GES1, MTT, 48 h, normal cells, means ± SD of three experiments, “-” not active, read-out: IC50 (μM) GES-1. The experiment is classed as cell-based.
Experiment [5] relates to MCF-7 cells. Nature of the experiment: ROS level assay, H2DCFDA, flow cytometry. Particulars: MCF-7, 12 μM, 24 h; control group 2.61%. The experiment is classed as cell-based, human. How it is done:
In the past years, many studies reported that intracellular amounts of reactive oxygen species (ROS) play an important role in some kinds of biological processes in tumor cells. […] Therefore, we explored if ROS stimulated by compound 8f induced apoptosis in MCF-7 cells. Cells were treated with compound 8f by gradient concentration (0, 3, 6 and 12 μM) for 24 h and then using H2DCFDA staining analysis by flow cytometry.
MCF-7 cells were cultured into 12-well plate at a concentration of 1 × 10^6 cells/well for 24 h of the RPMI-1640 medium with 10% FBS. Then, cells were co-cultured with compound 8f (0, 3, 6 and 12 µM) for 24 h. Then, the MCF-7 cells were stained with 5 µM H2DCFDA solution (400 µL/well) at room temperature in the dark for 30 min. The cells were harvested and washed with PBS twice according to the manufacturer’s instructions (Thermo Fisher Scientific, Waltham, MA, USA). The results were obtained by flow cytometry.
(In flow cytometry, cells or beads pass a laser one at a time.)

Experiment [6] relates to human lung carcinoma cells (A549). Briefly: MTT cytotoxicity assay, A549. The experiment is classed as cell-based. Particulars: A549, MTT, 48 h, means ± SD of three experiments, read-out: IC50 (μM) A549.
Experiment [7] relates to MCF-7 cells. Briefly: AO/EB staining, fluorescence microscope. The experiment is classed as cell-based, human. The following applies: MCF-7, 0, 3, 6 and 12 μM, 24 h. How it is done:
Firstly, the Acridine Orange/Ethidium Bromide (AO/EB) staining of MCF-7 cells treated with compound 8f was observed under a fluorescence microscope. A large number of normal cells in the control group were stained green and their nuclei were intact.
The MCF-7 cells in the logarithmic growth phase were cultured into 6-well plates (5 × 10^4 cells/mL). The cells incubated for overnight at 37 °C in an atmosphere of 5% CO2. Then the MCF-7 cells were treated with compound 8f (0, 3, 6 and 12 μM) for 24 h. The cover slip with monolayer MCF-7 cells was inverted on the glass slide with 20 μL of AO/BE stain (100 μg/mL). The fluorescence intensity was read using a fluorescence microscope (Zeiss, Oberserve A1, Oberkochen, Germany).

The subject of experiment [8] is MCF-7 cells. Nature of the experiment: Mitochondrial membrane potential (MMP) assay, JC-1, flow cytometry. It is filed as cell-based, human. Particulars: 24 h. How it is done: Mitochondria dysfunction has been proven to be an important role in inducing apoptosis in tumor cells. The loss of mitochondrial membrane potential (MMP) has been considered to be an early manifestation of mitochondrial dysfunction in apoptotic process. Thus, we tried to explore the contribution of mitochondria in compound-8f-induced apoptosis in MCF-7 cells. JC-1 cationic dye is an ideal MMP-sensitive probe, which can measure the MMP lost by flow cytometry.
MCF-7 cells were cultured into 12-well plates at a concentration of 1 × 10^6 cells/well of the RPMI-1640 medium. Then, cells were co-cultured with compound 8f (0, 3, 6 and 12 µM) for 24 h. After treatment, cells were stained with 3 µM cationic dye JC-1 at room temperature in the dark for 30 min according to the manufacturer’s instructions (BD Biosciences, San Jose, CA, USA). Finally, cells were harvested and washed with PBS twice, and then the results were recorded by flow cytometry analysis.

Experiment [9] deals with MCF-7 cells. Briefly: Annexin V-FITC/PI apoptosis analysis by flow cytometry. Particulars: 24 h, control 10.54%. The experiment is classed as cell-based, human. How it is done:
In order to confirm whether tumor cell apoptosis was induced by compound 8f in tumor cells, the MCF-7 cells were stained in sequence with Annexin V-FITC (AV) and propidium iodide (PI). MCF-7 cells deal with compound 8f by gradient concentration (0, 3, 6 and 12 μM) for 24 h, and the rates of apoptotic cells were detected by flow cytometry.
Apoptosis was determined by staining cells with an Annexin VFITC/PI detection kit (BD Biosciences, San Jose, CA, USA). Briefly, MCF-7 cells were seeded on six-well plates (6 × 10^4 cells/mL) and incubated with compound 8f (0, 3, 6 and 12 μM) for 24 h. Cells were washed twice with cold PBS and resuspended in 500 μL of 1 × binding buffer, and then 10 μL of Annexin V-FITC and 5 μL of PI were applied to stain the cells for 15 min at room temperature in the dark. The status of stained cells was analyzed using a flow cytometer (BD, FACSCalibur, San Jose, CA, USA).

Several values for one entry are separate records, joined by “and”; a condition that tells them apart may be missing. Equal entries are not always repeated. Entries after “also recorded” stand apart in the source; their conditions may differ. Where two headings read alike, the source gives them in different places.

As a reminder, the IC50 is the concentration at which inhibition is half-maximal. Consider `C=C(C)[C@@H]1CC[C@]2(/C=N/NC(=S)Nc3cccc(Cl)c3)CC[C@]3(C)[C@H](CC[C@@H]4[C@@]5(C)CC[C@H](O)C(C)(C)[C@@H]5CC[C@]43C)[C@@H]12` [Compound 8f, Lup-20(29)-ene-3β-ol-28-N-(3-chlorophenyl)thiosemicarbazide], for which, in experiment [1], the IC50 is 24.7 ± 0.9 µM. In addition, in the experiment on MCF-7 cells [2], the “expression level of Bax” value was “upregulation; also recorded: increased”, the “expression level of Bcl-2” value was “downregulation; also recorded: suppressed”, the “expression level of P53” value was “upregulation; also recorded: increased” and the “expression level of caspase-3” value was “activation; also recorded: activated”. In the experiment with MCF-7 cells [2], the “expression level of caspase-9” value was “activation; also recorded: activated”, the “expression level of cleaved caspase-3” value was “activation; also recorded: activated”, the “expression level of cleaved caspase-9” value is on record as “activation; also recorded: activated” and the “expression level of cytochrome c (cyt-c)” value is on record as “upregulation; also recorded: increased”. Besides, the 50% inhibitory concentration (IC50) in [3] (Homo sapiens, MCF7, 48 h) was less than 10 µM. Moreover, in [3] (MCF-7, ratio of IC50 values), the “fold more potent than betulin” value amounted to 3.32 fold. In addition, the IC50 in experiment [3] was 5.96 µM and 5.86 µM. In experiment [4], the IC50 amounted to 215 ± 6.28 µM. Also, in the experiment with MCF-7 cells [5], the “generation of ROS level” value was 75.22%. Moreover, the 50% inhibitory concentration (IC50) in experiment [6] was 10.4 ± 0.74 µM. Moreover, in the experiment with MCF-7 cells [7], the “AO/EB staining, cell morphology” value is recorded as “some cells showed apoptotic characteristics”. In addition, the “JC-1 fluorescence intensity (upper quadrant)” value in the experiment on MCF-7 cells [8] (MCF-7, 3 μM) is 79.00%. In addition, the “JC-1 fluorescence intensity (upper quadrant)” value in the experiment with MCF-7 cells [8] (MCF-7, 12 μM) came out at 47.06%. For the same compound, in the experiment on MCF-7 cells [9] (MCF-7, 3 μM), the “percentage of apoptosis cells” value came to 13.20%. In the experiment on MCF-7 cells [9] (MCF-7, 12 μM), the “percentage of apoptosis cells” value is reported as 48.66%.
